Measurements taken from patent US20260184669A1, “LIPID COMPOUND AND COMPOSITION FOR DELIVERY OF ACTIVE SUBSTANCE” (KOREA RESEARCH INSTIUTE OF BIOSCIENCE AND BIOTECHNOLOGY, priority 2022, published 2026).

What was measured:
[1] = Apparent pKa of mRNA-LNP by TNS binding assay; format: physicochemical; conditions: apparent pKa of mRNA-LNP made with the ionizable lipid
Experimental: The apparent pKa of the mRNA-LNPs prepared according to Example 27 was determined by analysis using 6-(p-toluidino)-2-naphthalenesulfonic acid sodium salt (TNS; Sigma-Aldrich, USA).
However, as the pH decreases, the proportion of positively charged ionizable lipids increases, allowing electrostatic interactions with TNS. […] When the pH of the solution increases and the ionizable lipids become neutralized, TNS can no longer engage in electrostatic interactions. Consequently, TNS loses its lipophilic character, exits the hydrophobic domain, and its fluorescence is quenched. Based on this principle, the pKa of LNPs can be measured by plotting the change in TNS fluorescence intensity in response to variations in the surrounding pH as an S-shaped curve, and calculating the […] of the inflection point. […]
Specifically, a master buffer was prepared containing 10 mM sodium phosphate, 10 mM sodium borate, 10 mM sodium citrate, and 150 mM sodium chloride (NaCl). […] After gently mixing the contents of each well, the fluorescence intensity was measured using a multiplate reader (Cary Eclipse, Agilent Technologies, USA) at an excitation wavelength of λex 330 nm and an emission wavelength of λem 435 nm.

[2] = Size, polydispersity index and surface charge of mRNA-LNP (Malvern Zetasizer Nano ZS90); format: physicochemical
Procedure, shortened: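 Dynamic/electrophoretic light scattering of LNPs diluted in PBS to a final mRNA concentration of 1 μg/mL. Readouts were particle size, PDI and surface charge.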

[3] = mRNA encapsulation efficiency (Quant-IT RiboGreen RNA assay); format: physicochemical; conditions: mRNA encapsulation efficiency of mRNA-LNP made with the ionizable lipid; average of two measurements
Procedure, shortened: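 LNP samples read with RiboGreen reagent in TE buffer with or without 2% Triton X-100 (37 °C, 10 min) to release encapsulated mRNA. Fluorescence at λex 480/λem 520 nm; EE % calculated from the two readings, averaged over two independent measurements.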

female C57BL/6 mice = assay: Protein expression efficiency of fLuc mRNA-LNPs after intramuscular injection (IVIS whole-body luminescence); format: in vivo; conditions: fLuc mRNA-LNP, intramuscular injection, luminescence at injection site, mice
Procedure, shortened: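 Female C57BL/6 mice (6-10 weeks, n≥4) got intramuscular fLuc mRNA-LNPs at 0.1-0.5 mg/kg mRNA. Injection-site luminescence was imaged under isoflurane at 1-72 h, 10 min after i.p. D-luciferin (200 μL, 15 mg/mL). Expression at 3 h was taken relative to MC3 or SM-102 LNPs.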

[4] = test system: CCL2 mRNA level in HEK-293T cells
[5] = test system: CCL3 mRNA level in HEK-293T cells
[6] = test system: IL-1β mRNA level in HEK-293T cells
[7] = test system: IL-6 mRNA level in HEK-293T cells

For `CCCCCCCCCCCOC(=O)CCCCCN(CCO)CCCCCCCC(=O)OC(CCCCCCCC)CCCCCCCC` [SM-102, reference compound], the PKa [1] was 6.48, the PDI ([2]; mRNA-LNP made with the ionizable lipid at its optimal formulation (Table 2)) was 0.140 and the “size (nm) Number” value ([2]; mRNA-LNP made with the ionizable lipid at its optimal formulation (Table 2), diluted with PBS to 1 μg/mL mRNA) was 101 nm. The “Zeta (mV)” value ([2]; surface charge of mRNA-LNP made with the ionizable lipid at its optimal formulation (Table 2)) was −2.99 mV, the “EE (%)” value [3] was 94% and the “Total flux 1 hour” value (female C57BL/6 mice; 1 hour after administration) was 1.48E+07. The “Total flux 3 hours” value (female C57BL/6 mice; 3 hours after administration) was 1.12E+08, the “Total flux 6 hours” value (female C57BL/6 mice; 6 hours after administration) was 1.82E+08 and the “Total flux 48 hours” value (female C57BL/6 mice; 48 hours after administration) was 7.43E+06. For the same molecule, the “Total flux 72 hours” value (female C57BL/6 mice; 72 hours after administration) was 2.86E+06, the Total flux (female C57BL/6 mice; after administration) was 2.27E+07 and the “CCL2 Average” value [4] was 0.83. For the same molecule, the “CCL3 Average” value [5] was 2.41, the “IL-1β Average” value [6] was 1.14 and the “IL-6 Average” value [7] was 1.82.
